Holding throughout (format): cell-based
In one experiment the test system is A. aerogenes 357. Description: IN VITRO antibacterial activity, A. aerogenes 357. The note with it: Klebsiella aerogenes, 357, 24 h. As for the experimental part:
(§1) In the Tables above MIC stands for minimum inhibitory concentration and
(§2) the results were obtained by providing halving dilutions of the test
(§3) compound in nutrient broth (concentrations usually range from 1/10,000 to
(§4) 1/320,000). These solutions are inoculated with the test organism,
(§5) incubated for 24 hours at 37° C and then examined for the presence
(§6) of growth. A test compound found to have a minimum inhibitory
(§7) concentration (MIC) of 1/160,000 is generally considered as a lead.

A further experiment concerns P. aeruginosa 359. Description: IN VITRO antibacterial activity, P. aeruginosa 359. The note with it: Pseudomonas aeruginosa, 359, 24 h. As for the experimental part:
as §1, §2, §3, §4, §5, §6, §7

In another experiment the test system is Pr. vulgaris 316. Description: IN VITRO antibacterial activity, Pr. vulgaris 316. Conditions: Proteus vulgaris, 316, 24 h. As for the experimental part:
as §1, §2, §3, §4, §5, §6, §7

A further experiment relates to S. pullorum 358. Description: IN VITRO antibacterial activity, S. pullorum 358. Conditions: Salmonella enterica, PULLORUM, 24 h. As for the experimental part:
as §1, §2, §3, §4, §5, §6, §7

Experiment [1] deals with S. marcesceus 854 (ATCC → 103). The experiment in a line: IN VITRO antibacterial activity, S. marcesceus 854 (ATCC → 103). Conditions: 24 h. As for the experimental part:
as §1, §2, §3, §4, §5, §6, §7

The subject of a further experiment is S. pyogenes R 353. The experiment in a line: IN VITRO antibacterial activity, S. pyogenes R 353. Conditions: Streptococcus pyogenes, R353, 24 h. As for the experimental part: as §1, §2, §3, §4, §5, §6, §7
The test system of a further experiment is Pr. mirabilis 360. The experiment in a line: IN VITRO antibacterial activity, Pr. mirabilis 360. The note with it: Proteus mirabilis, 360, 24 h. As for the experimental part:
as §1, §2, §3, §4, §5, §6, §7

For a further experiment, the system named is S. fecalis 353. Description: IN VITRO antibacterial activity, S. fecalis 353. The note with it: 24 h. As for the experimental part: as §1, §2, §3, §4, §5, §6, §7
A further experiment concerns E. Coli 198 (ATCC 1/229). The experiment in a line: IN VITRO antibacterial activity, E. Coli 198 (ATCC 1/229). Conditions: Escherichia coli, ATCC1, 24 h. As for the experimental part: as §1, §2, §3, §4, §5, §6, §7
A further experiment relates to S. pyogenes S B352. Description: IN VITRO antibacterial activity, S. pyogenes S B352. The note with it: Streptococcus pyogenes, SB352, 24 h. As for the experimental part:
as §1, §2, §3, §4, §5, §6, §7

Experiment [2] has as its system Kl. pneumoniae 855 (ATCC 10081). The experiment in a line: IN VITRO antibacterial activity, Kl. pneumoniae 855 (ATCC 10081). Conditions: Klebsiella pneumoniae, ATCC10081, nutrient broth, 24 hours at 37° C. As for the experimental part:
as §1, §2, §3, §4, §5, §6, §7

The next experiment has as its system E. coli B989. The experiment in a line: IN VITRO antibacterial activity against resistant organisms, E. coli B989. The note with it: resistant organism E. coli B989, nutrient broth, 24 hours at 37° C. As for the experimental part: as §1, §2, §3, §4, §5, §6, §7
The next experiment has as its system P. aeruginosa 377. The experiment in a line: IN VITRO antibacterial activity against resistant organisms, P. aeruginosa 377. The note with it: resistant organism P. aeruginosa 377, nutrient broth, 24 hours at 37° C. As for the experimental part:
as §1, §2, §3, §4, §5, §6, §7

The next experiment concerns P. aeruginosa 87442. Description: IN VITRO antibacterial activity against resistant organisms, P. aeruginosa 87442. Conditions: resistant organism P. aeruginosa 87442, nutrient broth, 24 hours at 37° C. As for the experimental part:
as §1, §2, §3, §4, §5, §6, §7

A further experiment has as its system E. coli B1002. The experiment in a line: IN VITRO antibacterial activity against resistant organisms, E. coli B1002. The note with it: resistant organism E. coli B1002, nutrient broth, 24 hours at 37° C. As for the experimental part:
as §1, §2, §3, §4, §5, §6, §7

A further experiment concerns K. pneumoniae. The experiment in a line: IN VITRO antibacterial activity, K. pneumoniae. Conditions: Klebsiella pneumoniae, 24 h. As for the experimental part: as §1, §2, §3, §4, §5, §6, §7
A further experiment relates to S. fecalis. Description: IN VITRO antibacterial activity, S. fecalis. Conditions: 24 h. As for the experimental part: as §1, §2, §3, §4, §5, §6, §7
In a further experiment the test system is S. marcesceus. The experiment in a line: IN VITRO antibacterial activity, S. marcesceus. The note with it: 24 h. As for the experimental part: as §1, §2, §3, §4, §5, §6, §7
The next experiment concerns E. coli B996. Description: IN VITRO antibacterial activity, E. coli B996 (resistant to Kanamycin and paromomycin). Conditions: Escherichia coli, nutrient broth, 24 hours at 37° C. As for the experimental part: as §1, §2, §3, §4, §5, §6, §7
The subject of the next experiment is S. pullorm. Description: IN VITRO antibacterial activity, S. pullorm. The note with it: 24 h. As for the experimental part:
as §1, §2, §3, §4, §5, §6, §7

The test system of the next experiment is E. coli 198. The experiment in a line: IN VITRO antibacterial activity, E. coli 198. Conditions: Escherichia coli, 198, 24 h. As for the experimental part: as §1, §2, §3, §4, §5, §6, §7
The test system of the next experiment is S. pyogenes R. The experiment in a line: IN VITRO antibacterial activity, S. pyogenes R. The note with it: Streptococcus pyogenes, 24 h. As for the experimental part:
as §1, §2, §3, §4, §5, §6, §7

The test system of the next experiment is P. aeruginosa. Description: IN VITRO antibacterial activity, P. aeruginosa. Conditions: Pseudomonas aeruginosa, 24 h. As for the experimental part:
as §1, §2, §3, §4, §5, §6, §7

The test system of a further experiment is S. pyogenes S. The experiment in a line: IN VITRO antibacterial activity, S. pyogenes S. Conditions: Streptococcus pyogenes, 24 h. As for the experimental part:
as §1, §2, §3, §4, §5, §6, §7

Another experiment deals with P. mirabilis. Description: IN VITRO antibacterial activity, P. mirabilis. Conditions: Proteus mirabilis, 24 h. As for the experimental part: as §1, §2, §3, §4, §5, §6, §7
Another experiment concerns A. aerogenes. Description: IN VITRO antibacterial activity, A. aerogenes. The note with it: Klebsiella aerogenes, 24 h. As for the experimental part: as §1, §2, §3, §4, §5, §6, §7
The mark [3] stands for this setting: Escherichia coli, read-out: MIC.
[4] abbreviates: Pseudomonas aeruginosa, read-out: MIC.

We go through four compounds from US4066753A, “Neomycin and paromomycin derivatives” (Canadian Patents and Development Limited, priority 1976, dated 1978).

≈ marks a conversion by molar mass, not a printed value. Like-named read-outs stand apart in the source and are kept apart here. Some results are limits rather than exact numbers.

In the case of `NC[C@@H]1O[C@H](O[C@H]2[C@@H](O)[C@H](O[C@@H]3[C@@H](O)[C@H](N)C[C@H](N)[C@H]3O[C@H]3O[C@H](CN)[C@@H](O)[C@H](O)[C@H]3N)O[C@@H]2CO)[C@H](N)[C@@H](O)[C@@H]1O` [Neomycin B, neomycin B], the MIC (commonly the lowest concentration that inhibits growth of the organism) against A. aerogenes 357 is < 0.2 µg/mL; against P. aeruginosa 359, 0.8 µg/mL (≈ 1.3 µM); with Pr. vulgaris 316 it was < 0.2 µg/mL; against S. pullorum 358 it was < 0.2 µg/mL; in experiment [1], < 0.2 µg/mL; in the experiment with S. pyogenes R 353, < 0.2 µg/mL. Further, the MIC in the experiment with Pr. mirabilis 360 was 0.4 µg/mL (≈ 0.651 µM); with S. fecalis 353 it was 0.8 µg/mL (≈ 1.3 µM); against E. Coli 198 (ATCC 1/229), 0.8 µg/mL (≈ 1.3 µM); against S. pyogenes S B352, < 0.2 µg/mL; in experiment [2], < 0.2 µg/mL.

`NC[C@@H]1O[C@H](O[C@H]2[C@@H](O)[C@H](O[C@@H]3[C@@H](O)[C@H](N)C[C@H](N)[C@H]3O[C@H]3O[C@H](CN)[C@@H](O)[C@H](O)[C@H]3N)O[C@@H]2CO)[C@H](N)[C@@H](O)[C@@H]1O` [Neomycin]: the MIC in the experiment on E. coli B989 (setting [3]) is 1.6 µg/mL (≈ 2.6 µM); with P. aeruginosa 377 (setting [4]), 0.4 µg/mL (≈ 0.651 µM); in the experiment with P. aeruginosa 87442 (setting [4]), < 0.2 µg/mL; in the experiment on E. coli B1002 (setting [3]) it was 50 µg/mL (≈ 81.3 µM).

For `NC[C@@H]1O[C@H](O[C@H]2[C@@H](O)[C@H](O[C@@H]3[C@@H](O)[C@H](N)C[C@H](N)[C@H]3O[C@H]3O[C@H](CO)[C@@H](O)[C@H](O)[C@H]3N)O[C@@H]2CO)[C@H](N)[C@@H](O)[C@@H]1O` [Paromomycin], the MIC in the experiment on K. pneumoniae was > 0.2 µg/mL; against S. fecalis, 1.6 µg/mL (≈ 2.6 µM); in the experiment on S. marcesceus it was 0.4 µg/mL (≈ 0.65 µM); in the experiment with E. coli B996 it was > 100 µg/mL; against S. pullorm, > 0.2 µg/mL; against E. coli 198 it was 0.4 µg/mL (≈ 0.65 µM). Besides, the MIC was < 0.2 µg/mL against S. pyogenes R; 0.8 µg/mL (≈ 1.3 µM) in the experiment on P. aeruginosa; < 0.2 µg/mL against S. pyogenes S; > 0.2 µg/mL in the experiment on P. mirabilis; > 0.2 µg/mL in the experiment on A. aerogenes.

As for Gentamycin, the MIC with E. coli B989, in the experiment with P. aeruginosa 377, in the experiment on P. aeruginosa 87442 and in the experiment with E. coli B1002 was < 0.2 µg/mL each time.
